Usually log P stands for the decadic logarithm of the partition coefficient of the neutral form, usually between octanol and water. What is called pKa is the negative logarithm of the acid dissociation constant.

This is an account of results in US20140248358A1, “Therapeutic Nanoparticles Comprising a Therapeutic Agent and Methods of Making and Using Same” (BIND Therapeutics, Inc., priority 2012, published 2014).

For series [1] the following is noted: hydrophobic acid; cited from earlier work.
The conditions of series [2]: cited from earlier work.
A short description of series [3]: Stability of dasatinib in release buffer at 37° C.
Series [4] can be described thus: Solubility of dasatinib in solvents, quantified using HPLC. The format is physicochemical. The conditions noted are these: for solubility: organic solvent or mixture, read-out: Dasatinib solubility (mg/mL, by HPLC). An excerpt:
The solubility of dasatinib in benzyl alcohol, ethyl acetate, and mixtures of oleic acid and benzyl alcohol were quantified using HPLC.

Where [5] appears, read: protonatable nitrogen-containing therapeutic agent.

Molecules are shown by their SMILES. In brackets after ≈: the same amount, converted by molar mass. Structures can show the parent of a compound that is named as a salt. Where two headings read alike, the source gives them in different places.

Consider `O=S(=O)(O)c1cccc2c(S(=O)(=O)O)cccc12` [naphthalene-1,5-disulfonic acid], for which, in series [1], the “log P” value was 1.3. Besides, the pKa in series [2] (hydrophobic acid) is −2.
As to `Cc1nc(Nc2ncc(C(=O)Nc3c(C)cccc3Cl)s2)cc(N2CCN(CCO)CC2)n1` [dasatinib], the “stability in release buffer” value in series [3] is recorded as “degraded after 24 hours”. The solubility was 16.8 mg/mL (≈ 34.5 mM) in series [4] (3% oleic acid in benzyl alcohol, 3% Oleic Acid in BA); 25.2 mg/mL (≈ 51.6 mM) in series [4] (6% oleic acid in benzyl alcohol, 6% Oleic Acid in BA); 29.8 mg/mL (≈ 61.1 mM) in series [4] (9% oleic acid in benzyl alcohol, 9% Oleic Acid in BA); 9.45 mg/mL (≈ 19.4 mM) in series [4] (solvent BA (benzyl alcohol)); 0.32 mg/mL (≈ 0.656 mM) in series [4] (solvent EA (ethyl acetate)). Also, the “improvement of solubility of dasatinib” value in series [4] (benzyl alcohol doped with oleic acid vs benzyl alcohol) is 2-3 fold. In series [2] (setting [5]), the pKa is 7.07.
`CCCCCCCC/C=C\CCCCCCCC(=O)O` [oleic acid]: the “log P” value in series [1] is listed as 6.78. The pKa in series [2] (hydrophobic acid) is 4-5.
`CC(C)CCC[C@@H](C)[C@H]1CC[C@H]2[C@@H]3CC=C4C[C@@H](OS(=O)(=O)O)CC[C@]4(C)[C@H]3CC[C@]12C` [cholesteryl sulfate]: the pKa in series [2] (hydrophobic acid) is listed as −1.4.
For `O=C(O)c1ccc2ccccc2c1O` [1-hydroxy-2-naphthoic acid], in series [1], the “log P” value is 2.97. In addition, the pKa in series [2] (hydrophobic acid) is 2-3.
Turning to `Cc1ccc(NC(=O)c2ccc(CN3CCN(C)CC3)cc2)cc1Nc1nccc(-c2cccnc2)n1` [imatinib, reference compound], in series [2] (setting [5]), the pKa is recorded as 8.38.
On to `C[C@H](CCC(=O)O)[C@H]1CC[C@H]2[C@@H]3CC[C@@H]4C[C@H](O)CC[C@]4(C)[C@H]3C[C@H](O)[C@]12C` [deoxycholic acid], for which the “log P” value in series [1] is 3.79. Further, in series [2] (hydrophobic acid), the pKa was 4.65.
Consider `CCN(CC)CCNC(=O)c1c(C)[nH]c(/C=C2\C(=O)Nc3ccc(F)cc32)c1C` [sunitinib, reference compound], for which, in series [2] (setting [5]), the pKa is listed as 7.07.
On to `C=C1CC[C@@H](OS(=O)(=O)O)C/C1=C/C=C1\CCC[C@]2(C)[C@@H]([C@H](C)CCCC(C)C)CC[C@@H]12` [Vitamin D3-sulfate], for which the pKa in series [2] (hydrophobic acid) was −1.5.
For the molecule `CCCCCCCCCCCCc1ccc(S(=O)(=O)O)cc1` [dodecylbenzenesulfonic acid], in series [1], the “log P” value is reported as 6.6. Further, the pKa in series [2] (hydrophobic acid) is given as −1.8.
For `O=C(O)c1cc2ccccc2c(Cc2c(O)c(C(=O)O)cc3ccccc23)c1O` [pamoic acid], the pKa in series [2] (hydrophobic acid) is listed as 2.4.
For the molecule `CCCCCCCC/C=C\CCCCCCCC(=O)OC[C@H](COP(=O)(O)O)OC(=O)CCCCCCC/C=C\CCCCCCCC` [dioleoyl phosphatidic acid], the pKa in series [2] (hydrophobic acid) was roughly 2.
Take `O=S(=O)(O)c1ccc2ccccc2c1` [naphthalene-2-sulfonic acid]: the “log P” value in series [1] is 2.1. Also, the pKa in series [2] (hydrophobic acid) is −1.8.
Turning to `CCCCCCCCCCCCOS(=O)(=O)O` [dodecylsulfuric acid], in series [1], the “log P” value was 4.5. Besides, the pKa in series [2] (hydrophobic acid) is listed as −0.09.
As to `CC[C@]1(O)C[C@H]2CN(CCc3c([nH]c4ccccc34)[C@@](C(=O)OC)(c3cc4c(cc3OC)N(C=O)[C@H]3[C@@](O)(C(=O)OC)[C@H](OC(C)=O)[C@]5(CC)C=CCN6CC[C@]43[C@@H]65)C2)C1` [vincristine, reference compound], the pKa in series [2] (setting [5]) is reported as 7.08.
